Measurements: PubChem BioAssay (NCI)
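48-hour exposure; five concentrations; linearly interpolated endpoints. The concentration for 50% growth inhibition is given as GI50. Definition used: TGI = concentration required for complete inhibition of growth.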

Legend:
Test in all cases: NCI-60 cell line screen, 48 h
UACC-62 melanoma = tested on: UACC-62 melanoma
RPMI-8226 leukemia = tested on: RPMI-8226 leukemia
NCI-H522 lung = tested on: NCI-H522 lung
UACC-257 melanoma = tested on: UACC-257 melanoma
DU-145 prostate = tested on: DU-145 prostate
MCF7 breast = tested on: MCF7 breast
HCT-116 colon = tested on: HCT-116 colon
SK-MEL-28 melanoma = tested on: SK-MEL-28 melanoma
SK-MEL-2 melanoma = tested on: SK-MEL-2 melanoma
786-0 renal = tested on: 786-0 renal
SN12C renal = tested on: SN12C renal
K-562 leukemia = tested on: K-562 leukemia
RXF 393 renal = tested on: RXF 393 renal
HL-60(TB) leukemia = tested on: HL-60(TB) leukemia
MDA-MB-435 = tested on: MDA-MB-435
M14 melanoma = tested on: M14 melanoma
OVCAR-3 ovarian = tested on: OVCAR-3 ovarian
NCI-H460 lung = tested on: NCI-H460 lung
OVCAR-5 ovarian = tested on: OVCAR-5 ovarian
COLO 205 colon = tested on: COLO 205 colon
SK-MEL-5 melanoma = tested on: SK-MEL-5 melanoma
CCRF-CEM leukemia = tested on: CCRF-CEM leukemia
SR leukemia = tested on: SR leukemia
TK-10 renal = tested on: TK-10 renal
BT-549 breast = tested on: BT-549 breast
HOP-62 NSCLC = tested on: HOP-62 NSCLC
A498 renal = tested on: A498 renal
NCI-H226 lung = tested on: NCI-H226 lung
CAKI-1 renal = tested on: CAKI-1 renal
A549 NSCLC = tested on: A549 NSCLC
HOP-92 NSCLC = tested on: HOP-92 NSCLC
UO-31 renal = tested on: UO-31 renal
SK-OV-3 ovarian = tested on: SK-OV-3 ovarian
SNB-19 CNS = tested on: SNB-19 CNS
EKVX NSCLC = tested on: EKVX NSCLC
MOLT-4 leukemia = tested on: MOLT-4 leukemia
HCT-15 colon = tested on: HCT-15 colon
KM12 colon = tested on: KM12 colon
MALME-3M melanoma = tested on: MALME-3M melanoma
HCC-2998 colon = tested on: HCC-2998 colon
OVCAR-8 ovarian = tested on: OVCAR-8 ovarian
U251 CNS = tested on: U251 CNS
SNB-75 CNS = tested on: SNB-75 CNS
HT29 colon = tested on: HT29 colon
NCI-H23 lung = tested on: NCI-H23 lung
MDA-MB-231 breast = tested on: MDA-MB-231 breast
LOX IMVI melanoma = tested on: LOX IMVI melanoma
NCI/ADR-RES ovarian = tested on: NCI/ADR-RES ovarian
IGROV1 ovarian = tested on: IGROV1 ovarian
ACHN renal = tested on: ACHN renal
SF-268 CNS = tested on: SF-268 CNS
SW-620 colon = tested on: SW-620 colon
SF-539 CNS = tested on: SF-539 CNS
OVCAR-4 ovarian = tested on: OVCAR-4 ovarian
PC-3 prostate = tested on: PC-3 prostate
SF-295 CNS = tested on: SF-295 CNS

O=C1N=C(c2c(-c3[nH]c(=O)c4ccc(Br)cc4c3O)c(O)c3ccccc3c2O)C(=O)c2cc(Br)ccc21
TGI (UACC-62 melanoma): > 16.7 µM | GI50 (RPMI-8226 leukemia): > 3.43 µM | TGI (RPMI-8226 leukemia): > 16.7 µM | GI50 (NCI-H522 lung): 0.359 µM | TGI (NCI-H522 lung): 1.11 µM | GI50 (UACC-257 melanoma): 0.48 µM | TGI (UACC-257 melanoma): 1.11 µM | GI50 (DU-145 prostate): 0.427 µM | TGI (DU-145 prostate): 1.11 µM | GI50 (MCF7 breast): 0.335 µM | TGI (MCF7 breast): 1.21 µM | GI50 (HCT-116 colon): 0.378 µM | TGI (HCT-116 colon): 1 µM | GI50 (SK-MEL-28 melanoma): 0.375 µM | TGI (SK-MEL-28 melanoma): 0.926 µM | TGI (SK-MEL-2 melanoma): > 4.94 µM | GI50 (786-0 renal): 0.36 µM | TGI (786-0 renal): 0.805 µM | GI50 (SN12C renal): 0.359 µM | TGI (SN12C renal): 0.79 µM | GI50 (K-562 leukemia): 0.593 µM | TGI (K-562 leukemia): > 16.7 µM | GI50 (RXF 393 renal): 0.296 µM | TGI (RXF 393 renal): 0.646 µM | GI50 (HL-60(TB) leukemia): > 16.7 µM | TGI (HL-60(TB) leukemia): > 16.7 µM | GI50 (MDA-MB-435): 1.03 µM | TGI (MDA-MB-435): 4.74 µM | GI50 (M14 melanoma): 0.523 µM | TGI (M14 melanoma): 1.6 µM | GI50 (OVCAR-3 ovarian): 0.388 µM | TGI (OVCAR-3 ovarian): 0.932 µM | GI50 (NCI-H460 lung): 0.417 µM | TGI (NCI-H460 lung): 1.02 µM | GI50 (OVCAR-5 ovarian): > 8.37 µM | TGI (OVCAR-5 ovarian): > 16.7 µM | GI50 (COLO 205 colon): > 16.7 µM | TGI (COLO 205 colon): > 16.7 µM | GI50 (SK-MEL-5 melanoma): 0.479 µM | TGI (SK-MEL-5 melanoma): 1.47 µM | GI50 (CCRF-CEM leukemia): 0.93 µM | TGI (CCRF-CEM leukemia): > 16.7 µM | GI50 (SR leukemia): 0.944 µM | TGI (SR leukemia): > 16.7 µM | GI50 (TK-10 renal): 0.484 µM | TGI (TK-10 renal): 1.18 µM | GI50 (BT-549 breast): 0.422 µM | TGI (BT-549 breast): 1.35 µM | GI50 (HOP-62 NSCLC): 0.292 µM | TGI (HOP-62 NSCLC): 0.66 µM | GI50 (A498 renal): 0.0044 µM | TGI (A498 renal): > 16.7 µM | GI50 (NCI-H226 lung): 0.335 µM | TGI (NCI-H226 lung): 0.937 µM | GI50 (CAKI-1 renal): 0.379 µM | TGI (CAKI-1 renal): 1.03 µM | GI50 (A549 NSCLC): 0.577 µM | TGI (A549 NSCLC): > 16.7 µM | GI50 (HOP-92 NSCLC): > 16.7 µM | TGI (HOP-92 NSCLC): > 16.7 µM | GI50 (UO-31 renal): 0.287 µM | TGI (UO-31 renal): 0.638 µM | GI50 (SK-OV-3 ovarian): 0.388 µM | TGI (SK-OV-3 ovarian): 1.22 µM | GI50 (SNB-19 CNS): 0.611 µM | TGI (SNB-19 CNS): > 16.7 µM | GI50 (EKVX NSCLC): 0.353 µM | TGI (EKVX NSCLC): 1.53 µM | GI50 (MOLT-4 leukemia): > 3.71 µM | TGI (MOLT-4 leukemia): > 16.7 µM | GI50 (HCT-15 colon): 0.306 µM | TGI (HCT-15 colon): 0.672 µM | GI50 (KM12 colon): 0.566 µM | TGI (KM12 colon): 1.97 µM | GI50 (MALME-3M melanoma): 0.367 µM | TGI (MALME-3M melanoma): 0.77 µM | GI50 (HCC-2998 colon): 0.347 µM | TGI (HCC-2998 colon): 0.832 µM | GI50 (OVCAR-8 ovarian): 0.526 µM | TGI (OVCAR-8 ovarian): > 16.7 µM | GI50 (U251 CNS): 0.37 µM | TGI (U251 CNS): 0.798 µM | GI50 (SNB-75 CNS): 0.261 µM | TGI (SNB-75 CNS): 0.537 µM | GI50 (HT29 colon): > 8.04 µM | TGI (HT29 colon): > 16.7 µM | GI50 (NCI-H23 lung): 0.3 µM | TGI (NCI-H23 lung): 0.785 µM | GI50 (MDA-MB-231 breast): 0.585 µM | TGI (MDA-MB-231 breast): > 16.7 µM | GI50 (LOX IMVI melanoma): 0.281 µM | TGI (LOX IMVI melanoma): 0.554 µM | GI50 (NCI/ADR-RES ovarian): 0.363 µM | TGI (NCI/ADR-RES ovarian): 1.08 µM | GI50 (IGROV1 ovarian): 0.493 µM | TGI (IGROV1 ovarian): 1.41 µM | GI50 (ACHN renal): 0.333 µM | TGI (ACHN renal): 0.908 µM

Cc1c(CN)c(C)c(CN)c(C)c1CN
TGI (RPMI-8226 leukemia): > 100 µM | TGI (SF-268 CNS): > 100 µM | TGI (SW-620 colon): > 100 µM | TGI (NCI-H522 lung): > 100 µM | TGI (UACC-257 melanoma): > 100 µM | TGI (DU-145 prostate): > 100 µM | TGI (MCF7 breast): > 100 µM | TGI (SF-539 CNS): > 100 µM | TGI (HCT-116 colon): > 100 µM | TGI (SK-MEL-28 melanoma): > 100 µM | TGI (SK-MEL-2 melanoma): > 100 µM | TGI (786-0 renal): > 100 µM | TGI (SN12C renal): > 100 µM | TGI (K-562 leukemia): > 100 µM | TGI (OVCAR-4 ovarian): > 100 µM | TGI (HL-60(TB) leukemia): > 100 µM | TGI (MDA-MB-435): > 100 µM | TGI (M14 melanoma): > 100 µM | TGI (NCI-H460 lung): > 100 µM | TGI (OVCAR-5 ovarian): > 100 µM | TGI (COLO 205 colon): > 100 µM | TGI (SK-MEL-5 melanoma): > 100 µM | TGI (CCRF-CEM leukemia): > 100 µM | TGI (SR leukemia): > 100 µM | TGI (TK-10 renal): > 100 µM | TGI (BT-549 breast): > 100 µM | TGI (HOP-62 NSCLC): > 100 µM | TGI (NCI-H226 lung): > 100 µM | TGI (CAKI-1 renal): > 100 µM | TGI (A549 NSCLC): > 100 µM | TGI (HOP-92 NSCLC): > 100 µM | TGI (SNB-19 CNS): > 100 µM | TGI (EKVX NSCLC): > 100 µM | TGI (MOLT-4 leukemia): > 100 µM | TGI (HCT-15 colon): > 100 µM | TGI (KM12 colon): > 100 µM | TGI (MALME-3M melanoma): > 100 µM | TGI (HCC-2998 colon): > 100 µM | TGI (OVCAR-8 ovarian): > 100 µM | TGI (U251 CNS): > 100 µM | TGI (SNB-75 CNS): > 100 µM | TGI (PC-3 prostate): > 100 µM | TGI (HT29 colon): > 100 µM | TGI (NCI-H23 lung): 94.5 µM | TGI (MDA-MB-231 breast): > 100 µM | TGI (LOX IMVI melanoma): > 100 µM | TGI (NCI/ADR-RES ovarian): > 100 µM | TGI (IGROV1 ovarian): > 100 µM | TGI (ACHN renal): > 100 µM | TGI (SF-295 CNS): > 100 µM
